pIC50: −log10 of the molar value.
Target: T1, H^+ +K^+ ATPase (Sus scrofa, UniProt P19156)
T1 construct: prepared from porcine stomach; from tissue; host or cells: porcine stomach
Assay: H+ +K+ ATPase inhibition (inorganic phosphoric acid release)
Format: biochemical
Conditions: enzyme prepared from porcine stomach; 30 min with compound at room temperature, pH 6.1; then 30 min at 37° C., pH 7.4, 20 mM KCl
Protocol: H^+ +K^+ ATPase (adenosine triphosphatase) (amount of protein: 10 μg) prepared from porcine stomach was added to a Pipes-TRIS [i.e. 2-amino-2-(hydroxymethyl)-1,3-propanediol] buffer solution (pH 6.1) containing 2 mM of piperazine N,N'-bis(2-ethanesulfonic acid), and the mixture was let stand at room temperature. A test compound was dissolved in dimethyl formamide, and the mixture was added to said H^+ +K^+ ATPase buffer solution so that the final concentration should be 1% and let stand for reaction for 30 minutes at room temperature. Then a 75 mM Pipes-TRIS buffer (1 ml, pH 7.4) (containing 4 mM MgCl2, 4 mM Na2 ATP, and 20 mM KCl) and a 75 mM Pipes-TRIS buffer (1 ml, pH 7.4) (containing 4 mM MgCl2, and 4 mM Na2 ATP) were added to the solution individually to make two kinds of samples and these samples were presented for reaction for 30 minutes at 37° C. 40% Trichloroacetic acid (0.3 ml) was added to each sample to stop the reaction. The solution were subjected to centrifugal separation (3000 rpm) for 10 minutes, and the supernatant was taken off, then the formed inorganic phosphoric acid was measured by Fiske and Subbarow's method [J. Biol. Chem. vol. 66, 375 (1925)]. The value of deducting the amount of inorganic phosphoric acid taken from the Pipes-Tris buffer not containing 20 mM KCl from that taken from the Pipes-Tris buffer containing 20 mM KCl was calculated in terms of unit protein and unit hour to be defined as an activity index of enzyme. Inhibition level (%) in doses of administration was estimated by control values and activity indices of enzyme, and from the obtained inhibition level (%), IC50 (dose of administration of compounds to inhibit in 50%) was obtained.

T1 sequence (P19156 2-1034 limits assumed): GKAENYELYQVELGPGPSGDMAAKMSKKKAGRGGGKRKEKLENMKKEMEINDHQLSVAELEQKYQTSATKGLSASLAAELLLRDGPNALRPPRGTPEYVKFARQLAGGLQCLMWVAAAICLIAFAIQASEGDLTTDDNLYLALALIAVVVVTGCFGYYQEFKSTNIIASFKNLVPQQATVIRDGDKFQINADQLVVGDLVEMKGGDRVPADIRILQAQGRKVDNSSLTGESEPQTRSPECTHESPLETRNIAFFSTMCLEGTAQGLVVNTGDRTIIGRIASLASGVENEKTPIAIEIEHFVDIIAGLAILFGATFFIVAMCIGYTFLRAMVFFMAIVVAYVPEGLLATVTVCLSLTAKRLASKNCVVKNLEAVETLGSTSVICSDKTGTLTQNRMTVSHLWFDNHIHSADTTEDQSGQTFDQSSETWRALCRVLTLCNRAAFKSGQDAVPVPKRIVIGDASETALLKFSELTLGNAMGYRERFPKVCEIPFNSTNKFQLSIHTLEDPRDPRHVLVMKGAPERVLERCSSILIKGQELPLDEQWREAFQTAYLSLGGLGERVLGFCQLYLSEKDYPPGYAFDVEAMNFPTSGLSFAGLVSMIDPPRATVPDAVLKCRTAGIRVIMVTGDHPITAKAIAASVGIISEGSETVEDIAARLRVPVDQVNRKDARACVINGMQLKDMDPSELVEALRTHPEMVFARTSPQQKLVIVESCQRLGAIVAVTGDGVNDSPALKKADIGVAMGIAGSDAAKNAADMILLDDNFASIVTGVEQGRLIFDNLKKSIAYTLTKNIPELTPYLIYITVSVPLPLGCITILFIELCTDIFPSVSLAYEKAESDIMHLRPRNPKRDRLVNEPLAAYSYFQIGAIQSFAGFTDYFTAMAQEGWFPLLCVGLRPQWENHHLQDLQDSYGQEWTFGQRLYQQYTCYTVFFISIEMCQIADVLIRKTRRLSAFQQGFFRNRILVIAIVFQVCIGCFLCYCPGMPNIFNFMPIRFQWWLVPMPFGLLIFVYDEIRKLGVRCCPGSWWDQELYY
T1 sequence (P18434 whole entry partner): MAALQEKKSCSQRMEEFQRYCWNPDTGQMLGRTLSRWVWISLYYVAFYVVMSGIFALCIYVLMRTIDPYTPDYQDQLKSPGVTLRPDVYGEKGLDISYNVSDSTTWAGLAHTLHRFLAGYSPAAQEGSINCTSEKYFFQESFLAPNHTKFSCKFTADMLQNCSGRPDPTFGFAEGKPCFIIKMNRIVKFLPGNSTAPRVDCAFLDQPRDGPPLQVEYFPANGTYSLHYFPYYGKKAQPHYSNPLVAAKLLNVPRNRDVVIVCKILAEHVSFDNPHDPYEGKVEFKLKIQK

Compound	pIC50
COc1ccc2nc([S+]([O-])Cc3cccc4c3N(C)CCC4)[nH]c2c1 (centres unmarked) [Test compound No. 16, 1-methyl-8-(5-methoxy-2-benzimidazolyl)sulfinylmethyl-1,2,3,4-tetrahydroquinoline]	6.16
Cc1ccc2nc([S+]([O-])Cc3cccc4c3N(Cc3ccc(F)cc3)CCC4)[nH]c2c1 (centres unmarked) [Test compound No. 34, 1-(4-fluorobenzyl)-8-(5-methyl-2-benzimidazolyl)sulfinylmethyl-1,2,3,4-tetrahydroquinoline]	5.68
C=CCN1CCCc2cccc(C[S+]([O-])c3nc4ccc(F)cc4[nH]3)c21 (centres unmarked) [Test compound No. 23, 1-allyl-8-(5-fluoro-2-benzimidazolyl)sulfinylmethyl-1,2,3,4-tetrahydroquinoline]	6.31
COc1cc2nc([S+]([O-])Cc3cccc4c3N(C)CCC4)[nH]c2cc1F (centres unmarked) [Test compound No. 20, 1-methyl-8-(5-fluoro-6-methoxy-2-benzimidazolyl)sulfinylmethyl-1,2,3,4-tetrahydroquinoline]	6.48
CCN1CCCc2cccc(C[S+]([O-])c3nc4cc(OC)c(F)cc4[nH]3)c21 (centres unmarked) [Test compound No. 6, 1-ethyl-8-(5-fluoro-6-methoxy-2-benzimidazolyl)sulfinylmethyl-1,2,3,4-tetrahydroquinoline]	6.21
Cc1ccc2nc([S+]([O-])Cc3cccc4c3N(Cc3ccccc3)CCC4)[nH]c2c1 (centres unmarked) [Test compound No. 28, 1-benzyl-8-(5-methyl-2-benzimidazolyl)sulfinylmethyl-1,2,3,4-tetrahydroquinoline]	6.19
CCN1CCC(N(C)C(C)=O)c2cccc(C[S+]([O-])c3nc4ccccc4[nH]3)c21 (centres unmarked) [Test compound No. 59, 1-ethyl-8-(2-benzimidazolyl)sulfinylmethyl-4-(N-methyl-N-acetyl)amino-1,2,3,4-tetrahydroquinoline]	5.24
CCN1CC=C(C(F)(F)F)c2cccc(C[S+]([O-])c3nc4ccccc4[nH]3)c21 (centres unmarked) [Test compound No. 72, 1-ethyl-8-(2-benzimidazolyl)sulfinylmethyl-4-trifluoromethyl-1,2-dihydroquinoline]	5.48
C=CCNC1CCN(CC)c2c(C[S+]([O-])c3nc4ccc(C)cc4[nH]3)cccc21 (centres unmarked) [Test compound No. 60, 1-ethyl-8-(5-methyl-2-benzimidazolyl)sulfinylmethylmethyl-4-allylamino-1,2,3,4-tetrahydroquinoline]	5.48
CN1CCC(=O)c2cccc(C[S+]([O-])c3nc4ccccc4[nH]3)c21 (centres unmarked) [Test compound No. 43, 1-methyl-8-(2-benzimidazolyl)sulfinylmethyl-4-oxo-1,2,3,4-tetrahydroquinoline]	5.17
C=CCN1CC(C)Cc2cccc(C[S+]([O-])c3nc4ccccc4[nH]3)c21 (centres unmarked) [Test compound No. 38, 1-allyl-8-(2-benzimidazolyl)sulfinylmethyl-3-methyl-1,2,3,4-tetrahydroquinoline]	6.08
Cc1cccc2nc([S+]([O-])Cc3cccc4c3N(C)CCC4)[nH]c12 (centres unmarked) [Test compound No. 19, 1-methyl-8-(4-methyl-2-benzimidazolyl)sulfinylmethyl-1,2,3,4-tetrahydroquinoline]	6.39
CC1=C(C)c2cccc(C[S+]([O-])c3nc4ccccc4[nH]3)c2N(C)C1 (centres unmarked) [Test compound No. 42, 1,3,4-trimethyl-8-(2-benzimidazolyl)sulfinylmethyl-1,2-dihydroquinoline]	6.26
CCCCN1CCCc2cccc(C[S+]([O-])c3nc4ccccc4[nH]3)c21 (centres unmarked) [Test compound No. 24, 1-n-butyl-8-(2-benzimidazolyl)sulfinylmethyl-1,2,3,4-tetrahydroquinoline]	6.74
CCN1CCCc2cccc(C[S+]([O-])c3nc4ccc(C(F)(F)F)cc4[nH]3)c21 (centres unmarked) [Test compound No. 10, 1-ethyl-8-(5-trifluoromethyl-2-benzimidazolyl)sulfinylmethyl-1,2,3,4-tetrahydroquinoline]	6.43
C=CCN1CCC(OC)c2cccc(C[S+]([O-])c3nc4ccc(C)cc4[nH]3)c21 (centres unmarked) [Test compound No. 62, 1-allyl-8-(5-methyl-2-benzimidazolyl)sulfinylmethylmethyl-4-methoxy-1,2,3,4-tetrahydroquinoline]	5.40

Compound	pIC50
CCN1CCCc2cccc(C[S+]([O-])c3nc4cc(C)cc(C)c4[nH]3)c21 (centres unmarked) [Test compound No. 12, 1-ethyl-8-(4,6-dimethyl-2-benzimidazolyl)sulfinylmethyl-1,2,3,4-tetrahydroquinoline]	6.38
[O-][S+](Cc1cccc2c1N(CC1CC1)CCC2)c1nc2ccccc2[nH]1 (centres unmarked) [Test compound No. 35, 1-cyclopropylmethyl-8-(2-benzimidazolyl)sulfinylmethyl-1,2,3,4-tetrahydroquinoline]	6.60
CCOC(N(C)C1CCN(CC)c2c(C[S+]([O-])c3nc4cc(F)c(OC)cc4[nH]3)cccc21)C(F)(F)F (centres unmarked) [Test compound No. 69, 1-ethyl-8-(5-fluoro-6-methoxy-2-benzimidazolyl)sulfinylmethyl-4-[N-methyl-N-(2,2,2-trifluoro-1ethoxyethyl)]amino-1,2,3,4-tetrahydroquinoline]	5.31
CCN1CCC(OC)c2cccc(C[S+]([O-])c3nc4ccccc4[nH]3)c21 (centres unmarked) [Test compound No. 48, 1-ethyl-8-(2-benzimidazolyl)sulfinylmethyl-4-methoxy-1,2,3,4-tetrahydroquinoline]	5.96
CCCCN1CCCc2cccc(C[S+]([O-])c3nc4ccc(C)cc4[nH]3)c21 (centres unmarked) [Test compound No. 25, 1-n-butyl-8-(5-methyl-2-benzimidazolyl)sulfinylmethyl-1,2,3,4-tetrahydroquinoline]	6.48
CCC1(O)CCN(C)c2c(C[S+]([O-])c3nc4ccccc4[nH]3)cccc21 (centres unmarked) [Test compound No. 46, 1-methyl-8-(2-benzimidazolyl)sulfinylmethyl-4-ethyl-4-hydroxy-1,2,3,4-tetrahydroquinoline]	5.74
CCN1CC(C(=O)OC)Cc2cccc(C[S+]([O-])c3nc4ccccc4[nH]3)c21 (centres unmarked) [Test compound No. 53, 1-ethyl-8-(2-benzimidazolyl)sulfinylmethyl-3-methoxycarbonyl-1,2,3,4-tetrahydroquinoline]	5.31
CCN1CCC(N(C)C2CC2)c2cccc(C[S+]([O-])c3nc4cc(F)c(OC)cc4[nH]3)c21 (centres unmarked) [Test compound No. 64, 1-ethyl-8-(5-fluoro-6-methoxy-2-benzimidazolyl)sulfinylmethyl-4-(N-methyl-N-cyclopropyl)amino-1,2,3,4-tetrahydroquinoline]	5.40
CCN1CCC(C)c2cccc(C[S+]([O-])c3nc4cc(OC)c(F)cc4[nH]3)c21 (centres unmarked) [Test compound No. 37, 1-ethyl-8-(5-fluoro-6-methoxy-2-benzimidazolyl)sulfinylmethyl-4-methyl-1,2,3,4-tetrahydroquinoline]	6.05
C=CCOC1CCN(CC)c2c(C[S+]([O-])c3nc4ccccc4[nH]3)cccc21 (centres unmarked) [Test compound No. 51, 1-ethyl-8-(2-benzimidazolyl)sulfinylmethyl-4-allyloxy-1,2,3,4-tetrahydroquinoline]	5.54
CCN1CCC(c2ccccc2)c2cccc(C[S+]([O-])c3nc4ccc(C)cc4[nH]3)c21 (centres unmarked) [Test compound No. 47, 1-ethyl-8-(5-methyl-2-benzimidazolyl)sulfinylmethyl-4-phenyl-1,2,3,4-tetrahydroquinoline]	5.82
CCN1CCC(CO)c2cccc(C[S+]([O-])c3nc4cc(OC)c(F)cc4[nH]3)c21 (centres unmarked) [Test compound No. 63, 1-ethyl-8-(5-fluoro-6-methoxy-2-benzimidazolyl)sulfinylmethyl-4-hydroxymethyl-1,2,3,4-tetrahydroquinoline]	5.35
CCN1CC=C(C)c2cccc(C[S+]([O-])c3nc4ccccc4[nH]3)c21 (centres unmarked) [Test compound No. 41, 1-ethyl-8-(2-benzimidazolyl)sulfinylmethyl-4-methyl-1,2-dihydroquinoline 1/2-hydrate]	6.64
CCN1CCCc2cccc(C[S+]([O-])c3nc4cccc(C)c4[nH]3)c21 (centres unmarked) [Test compound No. 11, 1-ethyl-8-(4-methyl-2-benzimidazolyl)sulfinylmethyl-1,2,3,4-tetrahydroquinoline]	6.30
CCN1CC(C(=O)N2CCCCC2)Cc2cccc(C[S+]([O-])c3nc4ccccc4[nH]3)c21 (centres unmarked) [Test compound No. 58, 1-ethyl-8-(2-benzimidazolyl)sulfinylmethyl-3-(1-piperizinyl)carbonyl-1,2,3,4-tetrahydroquinoline]	5.23
CC1CCN(C)c2c(C[S+]([O-])c3nc4ccccc4[nH]3)cccc21 (centres unmarked) [Test compound No. 29, 1,4-dimethyl-8-(2-benzimidazolyl)sulfinylmethyl-1,2,3,4-tetrahydroquinolin]	6.60

Source: patent US4963566A, “Benzimidazolyl-sulfinyl-tetrahydroquinolines” (Otsuka Pharmaceutical Co., Ltd., priority 1986, dated 1990)
